19 compounds from patent publication US20150274719A1, “AMINO-SUBSTITUTED IMIDAZO[1,2-A]PYRIDINECARBOXAMIDES AND THEIR USE” (BAYER PHARMA AKTIENGESELLSCHAFT, priority 2012, published 2015) can be followed below.

The target in the assay is T1, recombinant guanylate cyclase reporter cell line (Rattus norvegicus, UniProt P19686+P20595).
T1 construct: expressed in transfected cells; host or cells: recombinant reporter cell line
T1 sequence (P19686 1-690): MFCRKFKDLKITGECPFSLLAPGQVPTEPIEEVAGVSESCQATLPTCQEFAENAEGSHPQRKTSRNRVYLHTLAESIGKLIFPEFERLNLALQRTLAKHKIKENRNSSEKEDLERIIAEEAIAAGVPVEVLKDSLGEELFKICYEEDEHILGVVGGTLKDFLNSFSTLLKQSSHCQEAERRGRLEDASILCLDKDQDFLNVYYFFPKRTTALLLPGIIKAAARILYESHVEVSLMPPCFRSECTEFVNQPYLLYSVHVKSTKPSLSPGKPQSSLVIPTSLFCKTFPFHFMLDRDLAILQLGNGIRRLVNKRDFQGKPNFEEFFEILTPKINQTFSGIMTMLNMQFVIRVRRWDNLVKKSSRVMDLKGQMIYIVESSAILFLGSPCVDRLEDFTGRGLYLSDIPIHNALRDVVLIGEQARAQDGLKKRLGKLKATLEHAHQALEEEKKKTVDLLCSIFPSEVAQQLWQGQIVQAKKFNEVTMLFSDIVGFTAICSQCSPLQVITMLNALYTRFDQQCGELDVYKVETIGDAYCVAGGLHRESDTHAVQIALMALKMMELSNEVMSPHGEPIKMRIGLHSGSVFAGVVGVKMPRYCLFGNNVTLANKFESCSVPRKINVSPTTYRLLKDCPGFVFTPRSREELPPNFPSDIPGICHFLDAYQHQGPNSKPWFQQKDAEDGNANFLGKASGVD
T1 sequence (P20595 1-619): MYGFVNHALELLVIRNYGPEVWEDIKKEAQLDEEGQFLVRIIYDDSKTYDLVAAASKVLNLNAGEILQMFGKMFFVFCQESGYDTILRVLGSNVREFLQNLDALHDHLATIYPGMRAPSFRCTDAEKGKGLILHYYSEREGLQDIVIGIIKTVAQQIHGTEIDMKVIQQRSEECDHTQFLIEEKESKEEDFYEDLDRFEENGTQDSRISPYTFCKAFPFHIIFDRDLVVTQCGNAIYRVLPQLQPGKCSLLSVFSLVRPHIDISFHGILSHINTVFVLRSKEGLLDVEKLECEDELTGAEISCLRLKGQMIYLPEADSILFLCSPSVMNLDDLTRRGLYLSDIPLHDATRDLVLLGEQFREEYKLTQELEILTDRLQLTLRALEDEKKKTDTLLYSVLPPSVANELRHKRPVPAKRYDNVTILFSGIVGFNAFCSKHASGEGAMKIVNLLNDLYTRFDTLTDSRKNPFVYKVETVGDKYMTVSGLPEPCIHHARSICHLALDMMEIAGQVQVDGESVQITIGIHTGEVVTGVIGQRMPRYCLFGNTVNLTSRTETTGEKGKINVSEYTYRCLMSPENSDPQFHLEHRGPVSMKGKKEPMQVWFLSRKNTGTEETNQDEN
Briefly: Action on recombinant guanylate cyclase reporter cell line. In kind it is cell-based. Conditions: in some cases mean values from individual determinations. An outline of the steps:
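Cellular activity was measured in a reporter cell line expressing recombinant guanylate cyclase. Values are given as MEC, the minimal effective concentration, and some are means of individual determinations.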

Structures can show the parent of a compound that is named as a salt.

As for `CCC(C)(N)CNC(=O)c1c(C)nc2c(OCc3c(F)cccc3F)cc(C(F)F)cn12` (single isomer, unassigned; enantiomer a) [Example 288, ent-N-(2-amino-2-methylbutyl)-8-[(2,6-difluorobenzyl)oxy]-6-(difluoromethyl)-2-methylimidazo[1,2-a]pyridine-3-carboxamide (Enantiomer A)], the “MEC (minimal effective concentration)” value turned out to be 0.3 µM.
The figure for `Cc1cc(OCc2c(F)cccc2F)c2nc(C)c(C(=O)NCC(C)(N)Cc3ccccn3)n2c1` (single isomer, unassigned; enantiomer a) [Example 298, ent-N-[2-amino-2-methyl-3-(pyridin-2-yl)propyl]-8-[(2,6-difluorobenzyl)oxy]-2,6-dimethyl-imidazo[1,2-a]pyridine-3-carboxamide (Enantiomer A)] is 0.10 µM; for `CCC(C)(N)CNC(=O)c1c(C)nc2c(OCc3c(F)ccc(F)c3F)cc(C)cn12` (single isomer, unassigned; enantiomer a) [Example 300, ent-N-(2-amino-2-methylbutyl)-2,6-dimethyl-8-[(2,3,6-trifluorobenzyl)oxy]imidazo[1,2-a]pyridine-3-carboxamide (Enantiomer A) hydrochloride] it is 0.10 µM.
As for `Cc1cc(OCc2c(F)cccc2F)c2nc(C)c(C(=O)NC3CCC3N)n2c1` (single isomer, unassigned; enantiomer a) [Example 328, ent-N-(2-aminocyclobutyl)-8-[(2,6-difluorobenzyl)oxy]-2,6-dimethylimidazo[1,2-a]pyridine-3-carboxamide (Enantiomer A)], the figure is 3.00 µM; as for `Cc1cc(OCc2c(F)cccc2F)c2nc(C)c(C(=O)NC3CCC3(C)N)n2c1` (single isomer, unassigned; enantiomer a) [Example 332, ent-N-[2-amino-2-methylcyclobutyl]-8-[(2,6-difluorobenzyl)oxy]-2,6-dimethylimidazo[1,2-a]pyridine-3-carboxamide (Enantiomer A)], 1.00 µM; as for `Cc1cc(OCc2c(F)cccc2F)c2nc(C)c(C(=O)NC3(C)CCC3(C)N)n2c1` (single isomer, unassigned; enantiomer a) [Example 336, ent-N-[(2-amino-1,2-dimethylcyclobutyl]-8-[(2,6-difluorobenzyl)oxy]-2,6-dimethylimidazo[1,2-a]pyridine-3-carboxamide (Enantiomer A)], 0.30 µM.
As for `CCC(C)(N)CNC(=O)c1c(C)nc2c(OCc3c(F)cccc3F)cc(C)cn12.Cl` (single isomer, unassigned; enantiomer a) [Example 357, ent-N-(2-amino-2-methylbutyl)-8-[(2,6-difluorobenzyl)oxy]-2,6-dimethylimidazo[1,2-a]pyridine-3-carboxamide hydrochloride (Enantiomer A)], the figure is 0.03 µM.
For `Cc1cc(OCc2c(F)cccc2F)c2nc(C)c(C(=O)NCC(N)C#N)n2c1` (single isomer, unassigned; enantiomer a) [Example 401, ent-N-(2-amino-2-cyanoethyl)-8-[(2,6-difluorobenzyl)oxy]-2,6-dimethylimidazo[1,2-a]pyridine-3-carboxamide (Enantiomer A)], the “MEC (minimal effective concentration)” value came to 1.00 µM.
As for `Cc1nc2c(OCc3c(F)cccc3F)cccn2c1C(=O)NC(CN)CC(F)(F)F` (single isomer, unassigned; enantiomer b) [Example 3, ent-N-(1-Amino-4,4,4-trifluorobutan-2-yl)-8-[(2,6-difluorobenzyl)oxy]-2-methylimidazo[1,2-a]-pyridine-3-carboxamide (Enantiomer B)], the figure is 0.30 µM; as for `Cc1nc2c(OCc3c(F)cccc3F)cccn2c1C(=O)NC(CN)CCCC(F)(F)F` (single isomer, unassigned; enantiomer b) [Example 6, ent-N-(1-Amino-6,6,6-trifluorohexan-2-yl)-8-[(2,6-difluorobenzyl)oxy]-2-methylimidazo[1,2-a]-pyridine-3-carboxamide (Enantiomer B)], 0.23 µM; as for `Cc1nc2c(OCc3c(F)cccc3F)cccn2c1C(=O)NC(CN)c1ccc(Cl)cc1` (single isomer, unassigned; enantiomer b) [Example 15, ent-N-[2-Amino-1-(4-chlorophenyl)ethyl]-8-[(2,6-difluorobenzyl)oxy]-2-methylimidazo[1,2-a]-pyridine-3-carboxamide (Enantiomer B)], 0.53 µM.
As for `Cc1nc2c(OCc3c(F)cccc3F)cccn2c1C(=O)NC(CN)c1ccccc1` (single isomer, unassigned; enantiomer b) [Example 18, ent-N-(2-Amino-1-phenylethyl)-8-[(2,6-difluorobenzyl)oxy]-2-methylimidazo[1,2-a]pyridine-3-carboxamide (Enantiomer B)], the figure is 0.55 µM.
The figure for `CCCC(C)(N)CNC(=O)c1c(C)nc2c(OCc3c(F)cccc3F)cc(Cl)cn12` (single isomer, unassigned; enantiomer b) [Example 246, ent-N-(2-Amino-2-methylpentyl)-6-chloro-8-[(2,6-difluorobenzyl)oxy]-2-methylimidazo[1,2-a]-pyridine-3-carboxamide (Enantiomer B)] is 0.30 µM; for `COCC(N)CNC(=O)c1c(C)nc2c(OCc3c(F)cccc3F)cccn12` (single isomer, unassigned; enantiomer b) [Example 248, ent-N-(2-Amino-3-methoxypropyl)-8-[(2,6-difluorobenzyl)oxy]-2-methylimidazo[1,2-a]pyridine-3-carboxamide (Enantiomer B)] it is 1.00 µM; for `Cc1cc(OC(C)c2c(F)cccc2F)c2nc(C)c(C(=O)NCC(C)(C)N)n2c1` (single isomer, unassigned; enantiomer b) [Example 256, ent-N-(2-Amino-2-methylpropyl)-8-[1-(2,6-difluorophenyl)ethoxy]-2,6-dimethylimidazo[1,2-a]-pyridine-3-carboxamide (Enantiomer B)] it is 3.00 µM.
Consider `Cc1nc2c(OCc3c(F)cccc3F)cccn2c1C(=O)NCC(C)(N)CCOCc1ccccc1` (single isomer, unassigned; enantiomer b) [Example 267, ent-N-[2-Amino-4-(benzyloxy)-2-methylbutyl]-8-[(2,6-difluorobenzyl)oxy]-2-methylimidazo[1,2-a]pyridine-3-carboxamide (Enantiomer B)], for which the “MEC (minimal effective concentration)” value is 0.10 µM.
The figure for `Cc1cc(OCc2c(F)cccc2F)c2nc(C)c(C(=O)NCC(C)(N)CO)n2c1` (single isomer, unassigned; enantiomer b) [Example 269, ent-N-(2-Amino-3-hydroxy-2-methylpropyl)-8-[(2,6-difluorobenzyl)oxy]-2,6-dimethylimidazo-[1,2-a]pyridine-3-carboxamide (Enantiomer B)] is 0.65 µM.
As for `CCCC(C)(N)CNC(=O)c1c(C)nc2c(OCc3c(F)cccc3F)cc(OC)cn12` (single isomer, unassigned; enantiomer b) [Example 278, ent-N-(2-amino-2-methylpentyl)-8-[(2,6-difluorobenzyl)oxy]-6-methoxy-2-methylimidazo[1,2-a]pyridine-3-carboxamide (Enantiomer B)], the figure is 0.3 µM; as for `CCCC(C)(N)CNC(=O)c1c(C)nc2c(OCc3c(F)cccc3F)cc(N3CCOCC3)cn12` (single isomer, unassigned; enantiomer b) [Example 280, ent-N-(2-amino-2-methylpentyl)-8-[(2,6-difluorobenzyl)oxy]-2-methyl-6-(morpholin-4-yl)imidazo[1,2-a]pyridine-3-carboxamide (Enantiomer B)], 0.65 µM.
